Entries after “also recorded” stand apart in the source; their conditions may differ.
Key:
Assay type in all cases: in vivo, Cryptotis parva
[1] = system: Least Shrew; experiment: Emetic effect of arachidonic acid metabolites and leukotrienes in the Least Shrew; details: found experimentally
Description: Varying doses of leukotriene LTC4 were administered by intraperitoneal injection, and dose-response emetic effects recorded for 30 min post-injection observation period. The graph in FIG. 20 depicts enhancements in the frequency (mean±S.E.M.) of emesis.

[2] = system: GR73632-induced emesis and scratching in the Least Shrew; experiment: Antagonist interaction study against GR73632 (5 mg/kg, i.p.)-induced emesis and scratching; details: for behavioral effect of antagonist by itself: 20 mg/kg dose, without GR73632
Description: The present protocols were based upon preliminary studies as well as published findings in the Least Shrew. Darmani, 2001a; Darmani et al., 69 Pharmacol. Biochem. Behay. 239-49 (2001b). On the test day, the shrews were allowed to acclimate to the test laboratory for at least one hour prior to experimentation. To habituate the animals to the test environment, each shrew was randomly selected and transferred to a 20 cm×18 cm×21 cm clean clear plastic cage and offered four mealworms (Tenebrio sp.) 30 min prior to experimentation.
The latter doses of SP and GR73632 were chosen for subsequent antagonist interaction studies to pharmacologically characterize the role of NK1 receptors in the mediation of induced emesis by the use of: (1) two selective neurokinin NK1 receptor antagonists (CP99,994 and L733060) (Watson et al., 115 Br. J. Phramacol. 84-94 (1995); Guiard et al., 89 J. Neurochem. 54-63 (2004)); (2) an NK2 receptor antagonist (GR159897) (Beresford et al., 272 Eur. J. Pharmacol. 241-48 (1995)); and (3) an NK3 receptor antagonist (SB218795) (Salthun-Lassalle et al., 1995).
For the above drug interaction studies, different doses (i.p.) of either CP99,994 (0, 5, 10, and 20 mg/kg, n=10-14 shrews per group); L733060 (0, 5, 10, and 20 mg/kg, n=10-14 shrews per group), GR159897 (0 mg/kg and 20 mg/kg, n=8 per group) or SB218795 (0 or 20 mg/kg, n=7-8 per group) were administered to different groups of shrews 30 min prior to injection of an emetic dose (5 mg/kg, i.p.) of the NK1-receptor agonist GR73632. Emesis and scratchings were recorded for 30 min immediately following GR73632 administration as described above. The antiemetic effect of CP99,994 (0, 5, and 10 mg/kg, n=9-10 animals per group) was also investigated in a similar manner against SP (50 mg/kg, i.p.)-induced emesis.
(§1) The data on the frequency of emesis and scratchings were analyzed by the Kruskal-Wallis (KW) nonparametric one-way analysis of variance (ANOVA) and post hoc analysis by Dunn's multiple comparisons test or Mann-Whitney test. A P value of <0.05 was necessary to attain statistical significance. The incidence of emesis (number of shrews vomiting) was analyzed by the Fisher's exact test to determine whether there were differences between groups. When appropriate, pairwise comparisons were also made by this method. Two-way analysis of variance using the Kruskal-Wallis or Fisher's exact tests were initially utilized to respectively analyze the dose-response results of GR73632 on emesis and scratching behaviors, and percentage of shrews vomiting in saporin- and corresponding saline-pretreated control shrews. […] For some emesis data, the two-tailed Mann-Whitney test was used. The SP tissue concentration data were analyzed by a one-way ANOVA followed by Dunnett's t test as post hoc analysis. Fos-IR was quantified by counting immunopositive nuclei within each hemisection containing the region of interest (ROI). The number of nuclei was averaged across sections with the ROI for each animal, and the group mean and standard error obtained.

[3] = system: CIS-induced emesis in the Least Shrew; experiment: Tropisetron, Δ^9-THC and dexamethasone alone or in combination against CIS (20 mg/kg)-induced emesis, 60 min
Description: Briefly, all animals were randomly divided into two groups. On the test day, shrews were habituated to the laboratory environment for at least 1 hr prior to experimentation. […] All drugs were administered at a volume of 0.1 ml/10 g body weight. Immediately following the second injection, each shrew was placed in the observation cage, and both the number of animals vomiting per group and the frequency of vomiting (oral ejections of food or liquid) were recorded for the next 60 min
Poisson regression and logistic regression analyses were employed for two-way analysis of vomiting frequency and protection from emesis, respectively. […] Data regarding the frequency of emesis were analyzed by the Kruskal-Wallis nonparametric one-way analysis of variance (ANOVA), and post hoc analysis by Dunn's multiple comparisons test. The incidence of emesis (number of animals vomiting) was analyzed by Fisher's exact test to determine whether there were differences between groups, and when appropriate, pairwise comparisons were also made. A p value of<0.05 was necessary to achieve statistical significance.

[4] = system: Least Shrew; experiment: Dose response emesis and scratching studies with tachykinin receptor agonists
Description: The present protocols were based upon preliminary studies as well as published findings in the Least Shrew. Darmani, 2001a; Darmani et al., 69 Pharmacol. Biochem. Behay. 239-49 (2001b). On the test day, the shrews were allowed to acclimate to the test laboratory for at least one hour prior to experimentation. To habituate the animals to the test environment, each shrew was randomly selected and transferred to a 20 cm×18 cm×21 cm clean clear plastic cage and offered four mealworms (Tenebrio sp.) 30 min prior to experimentation. […]
as §1

[5] = 1 mg/kg i.p., administered alone
[6] = 5 mg/kg i.p., administered alone
[7] = tropisetron 0.1 mg/kg with 0.5 mg/kg Δ^9-THC
[8] = tropisetron 0.25 mg/kg with 0.25 mg/kg Δ^9-THC
[9] = tropisetron 0.25 mg/kg with 0.5 mg/kg Δ^9-THC
[10] = tropisetron 1 mg/kg with 0.1 mg/kg Δ^9-THC
[11] = tropisetron 1 mg/kg with 0.25 mg/kg Δ^9-THC
[12] = tropisetron 1 mg/kg with 0.5 mg/kg Δ^9-THC
[13] = tropisetron 5 mg/kg with 0.1 mg/kg Δ^9-THC
[14] = tropisetron 5 mg/kg with 0.25 mg/kg Δ^9-THC
[15] = tropisetron 5 mg/kg with 0.5 mg/kg Δ^9-THC

## CCCCC/C=C\C\C=C/C=C/C=C/[C@@H](SC[C@H](NC(=O)CC[C@@H](N)C(=O)O)C(=O)O)[C@@H](O)CCCC(=O)O [LTF4]
[1]
  emesis in the Least Shrew: non-emetic

## COC1(C[S@@+]([O-])c2ccccc2)CCN(CCc2c[nH]c3ccc(F)cc23)CC1 [GR159897, 5-Flouro-3-[2-[4-methoxy-4-[[(R)-phenylsulphinyl]methyl]-1-piperidinyl]ethyl]-1H-indole]
[2]
  behavioral effect of antagonist by itself: did not produce any behavioral effect
[2]; antagonist 20 mg/kg i.p.
  enhancement of frequency of GR73632-induced emesis: did not attain significance
  enhancement of frequency of GR73632-induced scratching: did not attain significance
  percentage of shrews vomiting in response to GR73632: failed to affect

## CCCCC[C@H](O)/C=C/[C@@H]1[C@@H](C/C=C\CCCC(=O)O)[C@@H](O)C[C@H]1O [PGF2α]
[1]
  emesis in the Least Shrew: produce emesis

## CCCCC[C@@H](/C=C/[C@@H]1[C@@H](C/C=C\CCCC(=O)O)[C@@H]2C[C@H]1OO2)OO [PGG2]
[1]
  emesis in the Least Shrew: produce emesis

## CCCCC/C=C\C\C=C/C=C/C=C/[C@@H](SC[C@H](NC(=O)CC[C@H](N)C(=O)O)C(=O)NCC(=O)O)[C@@H](O)CCCC(=O)O [LTC4]
[1]
  emesis in the Least Shrew: potent emetogens; also recorded: produce emesis

## CCCCC[C@H](O)/C=C/[C@H]1C(=O)C[C@H](O)[C@@H]1C/C=C\CCCC(=O)O [PGD2]
[1]
  emesis in the Least Shrew: non-emetic

## CN1[C@@H]2CC[C@H]1C[C@@H](OC(=O)c1c[nH]c3ccccc13)C2 [tropisetron]
[3]; 0.25 mg/kg i.p., administered alone
  reduction in frequency of CIS-induced emesis: 79%
[3]; [5]
  reduction in frequency of CIS-induced emesis: 94%
  reduction in percentage of shrews vomiting in response to CIS: 75%
[3]; [6]
  reduction in frequency of CIS-induced emesis: 99.8%
  reduction in percentage of shrews vomiting in response to CIS: 92%
[3]; drug by itself, dose-dependent
  reduction in number of shrews vomiting, over tested doses: completely protected
[3]; tropisetron 0.025 mg/kg with 0.25 mg/kg Δ^9-THC
  reduction in frequency of CIS-induced emesis: 60%
[3]; tropisetron 0.1 mg/kg with 0.25 mg/kg Δ^9-THC
  reduction in frequency of CIS-induced emesis: 59.8%
[3]; [7]
  reduction in frequency of CIS-induced emesis: 57.5%
  reduction in percentage of shrews vomiting in response to CIS: 58%
[3]; tropisetron 0.25 mg/kg with 0.1 mg/kg Δ^9-THC, vs 0 mg/kg tropisetron
  reduction in frequency of CIS-induced emesis: 88%
[3]; [8]
  reduction in frequency of CIS-induced emesis: 84%
  reduction in percentage of shrews vomiting in response to CIS: 50%
[3]; [9]
  reduction in frequency of CIS-induced emesis: 70%
  reduction in percentage of shrews vomiting in response to CIS: 50%
[3]; [10]
  reduction in frequency of CIS-induced emesis: 90.6%
  reduction in percentage of shrews vomiting in response to CIS: 78%
[3]; [11]
  reduction in frequency of CIS-induced emesis: 100%
  reduction in percentage of shrews vomiting in response to CIS: 100%
[3]; [12]
  reduction in frequency of CIS-induced emesis: 70.1%
  reduction in percentage of shrews vomiting in response to CIS: 83%
[3]; [13]
  reduction in frequency of CIS-induced emesis: 89.4%
  reduction in percentage of shrews vomiting in response to CIS: 71%
[3]; [14]
  reduction in frequency of CIS-induced emesis: 93%
  reduction in percentage of shrews vomiting in response to CIS: 70%
[3]; [15]
  reduction in frequency of CIS-induced emesis: 69.8%
  reduction in percentage of shrews vomiting in response to CIS: 58%
[3]; tropisetron, all doses, combined with 1 mg/kg or 5 mg/kg Δ^9-THC
  effect on frequency of CIS-induced vomiting: None of the cited doses of tropisetron had a significant effect
[3]; tropisetron, any dose, with 1 mg/kg and 5 mg/kg Δ^9-THC
  effect on percentage of shrews vomiting: no dose of tropisetron significantly altered

## CCCCC/C=C\C\C=C/C=C/C=C/[C@@H](SC[C@H](N)C(=O)O)[C@@H](O)CCCC(=O)O [LTE4]
[1]
  emesis in the Least Shrew: non-emetic

## COC(=O)C(NC(=O)c1cc(-c2ccccc2)nc2ccccc12)c1ccccc1 (centres unmarked) [SB218795]
[2]
  behavioral effect of antagonist by itself: did not produce any behavioral effect
[2]; antagonist 20 mg/kg i.p.
  enhancement of frequency of GR73632-induced emesis: did not attain significance
  enhancement of frequency of GR73632-induced scratching: did not attain significance
  percentage of shrews vomiting in response to GR73632: failed to affect

## O=C(O)CCC/C=C\C[C@@H]1[C@@H](/C=C/[C@@H](O)CCCCCO)[C@H](O)C[C@@H]1O [20 Hydroxy PGE2α]
[1]
  emesis in the Least Shrew: produce emesis

## CCCCC[C@H](O)/C=C/[C@H]1[C@H](O)CC(=O)[C@@H]1C/C=C\CCCC(=O)O [PGE2]
[1]
  emesis in the Least Shrew: non-emetic

## [Sar^9, Met (O2)”]-Substance P [Sar Met-SP]
[4]; 1 mg/kg i.p.
  percentage of shrews vomiting: 20%
[4]; 5 mg/kg i.p.
  percentage of shrews vomiting: 33%
[4]; 10 mg/kg i.p.
  percentage of shrews vomiting: 0%

## acetyl-[Arg, Sar^9, Met (O2)^11]-SP (6-11) [ASMSP]
[4]; 5 mg/kg i.p.
  percentage of shrews vomiting: 37%
[4]; 10 mg/kg i.p.
  percentage of shrews vomiting: 50%
[4]; 20 mg/kg i.p.
  percentage of shrews vomiting: 50%

## Cl.FC(F)(F)c1cc(CO[C@H]2CCCN[C@H]2c2ccccc2)cc(C(F)(F)F)c1 [L733060]
[2]; antagonist 5 mg/kg i.p.
  reduction in frequency of GR73632-induced emesis: 62%
  reduction in percentage of shrews vomiting in response to GR73632: 33%
  reduction of GR73632-induced scratchings: 63%
[2]; antagonist 10 mg/kg i.p.
  reduction in frequency of GR73632-induced emesis: 74%
  reduction in percentage of shrews vomiting in response to GR73632: 53%
  reduction of GR73632-induced scratchings: 69%
[2]; antagonist 20 mg/kg i.p.
  reduction in frequency of GR73632-induced emesis: 95%
  reduction in percentage of shrews vomiting in response to GR73632: 73%
  reduction of GR73632-induced scratchings: 54%
[2]; at highest tested effective antiemetic doses
  onset of first emesis induced by GR73632: only delayed the onset of first emesis

## [Lys^3, Gly^8-R-gamma-lactam-leu^9]Neurokinin-A (3-10) [GR64349]
[4]; doses up to 10 mg/kg i.p.
  produced emesis or significant scratchings: neither

— patent US20110093959A1, “CRYPTOTIS PARVA SCREENING MODEL FOR ANTIEMETIC POTENTIAL” (priority 2008, published 2011)
